Consider 25 compounds from patent US10844062B2, “Pyridine derivative inhibiting RAF kinase and vascular endothelial growth factor receptor, method for preparing same, pharmaceutical composition containing same, and use thereof” (SAMJIN PHARMACEUTICAL CO., LTD., priority 2016, dated 2020).

The test concerns LS513 KRAS G12V (colon). As to the kind of experiment: MTT assay. Type of test: cell-based. Conditions: Homo sapiens, LS-513, 72 h, Table 4; 3 days incubation; read-out: MTT assay IC50 KRAS mutant (Colon) LS513 KRAS G12V. The gist of the method:
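Cells were seeded at line-dependent density and stabilised overnight at 37 °C, then exposed to compounds for 3 days at 37 °C. MTT was then added for 2 h and the formazan dissolved in DMSO.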
(In general: Tetrazolium dyes change colour on reduction, which living cells bring about.)

For the compound `O=C(Nc1cc(Nc2ncccc2-c2ncnc3[nH]cnc23)ccc1F)c1ccc(C(F)(F)F)cc1C(F)(F)F` [Example 128, N-5-[(3-(9H-purin-6-yl)pyridin-2-yl)amino]-2-fluorophenyl-2,4-bis(trifluoromethyl)benzamide], the IC50 came out at 1200 nM.
To `Cc1cccc(C(=O)Nc2cc(Nc3ncccc3-c3ncnc4[nH]cnc34)ccc2F)c1` [Example 145, N-5-[(3-(9H-purin-6-yl)pyridin-2-yl)amino]-2-fluorophenyl-3-methylbenzamide] belongs 1030 nM; to `O=C(Nc1cccc(Nc2ncccc2-c2ncnc3[nH]cnc23)c1)c1cccc(C(F)(F)F)c1` [Example 51, N-(3-(3-(9H-Purin-6-Yl)Pyridin-2-Ylamino)Phenyl)-3-(Trifluoromethyl)Benzamide], 5670 nM; to `O=C(Nc1ccc(F)c(Nc2ncccc2-c2ncnc3[nH]cnc23)c1F)c1ccc2c(c1)OCCO2` [Example 17, N-(3-(3-(9H-purin-6-yl)pyridin-2-ylamino)-2,4-difluorophenyl)-2,3-dihydrobenzo[b][1,4]dioxine-6-carboxamide], 1160 nM.
Take `COc1cc(Nc2ncccc2-c2ncnc3[nH]cnc23)ccc1NC(=O)c1cccc(C(F)(F)F)c1` [Example 80, N-2-Methoxy-4-[3-(9H-Purin-6-Yl)Pyridin-2-Ylamino]Phenyl-3-Trifluoromethylbenzamide]: the IC50 was greater than 10000 nM.
Then `O=C(Nc1cc(Nc2ncccc2-c2ncnc3[nH]cnc23)ccc1F)c1ccnc(C(F)(F)F)c1` [Example 151, N-5-[(3-(9H-purin-6-yl)pyridin-2-yl)amino]-2-fluorophenyl-2-(trifluoromethyl)isonicotinamide], with 350 nM; and `O=C(Nc1c(F)ccc(Nc2ncccc2-c2ncnc3[nH]cnc23)c1F)c1cccc(C(F)(F)F)c1` [Example 72, N-2,6-Difluoro-3-[3-(9H-Purin-6-Yl)Pyridin-2-Ylamino)Phenyl-3-Trifluoromethylbenzamide], with 1270 nM; and `O=C(Nc1ccc(F)c(Nc2ncccc2-c2ncnc3[nH]cnc23)c1F)c1cccc(Cl)c1` [Example 45, N-(3-(3-(9H-Purin-6-Yl)Pyridin-2-Ylamino)-2,4-Difluorophenyl)-3-Chlorobenzamide], with greater than 10000 nM.
In the case of `COc1ccc(C(=O)Nc2cc(Nc3ncccc3-c3ncnc4[nH]cnc34)ccc2F)cc1C(F)(F)F` [Example 134, N-5-[(3-(9H-purin-6-yl)pyridin-2-yl)amino]-2-fluorophenyl-4-methoxy-3-(trifluoromethyl)benzamide], the IC50 turned out to be 72 nM.
Then `O=C(Nc1ccc(F)c(Nc2ncccc2-c2ncnc3[nH]cnc23)c1F)c1cc([N+](=O)[O-])cc(C(F)(F)F)c1` [Example 40, N-(3-(3-(9H-Purin-6-Yl)Pyridin-2-Ylamino)-2,4-Difluorophenyl)-3-Nitro-5-(Trifluoromethyl)Benzamide], with 163 nM; and `Nc1cccc(C(=O)Nc2ccc(F)c(Nc3ncccc3-c3ncnc4[nH]cnc34)c2F)c1` [Example 54, N-(3-(3-(9H-Purin-6-Yl)Pyridin-2-Ylamino)-2,4-Difluorophenyl)-3-Aminobenzamide], with greater than 10000 nM.
Turning to `O=C(Nc1ccc(F)c(Nc2ncccc2-c2ncnc3[nH]cnc23)c1F)c1cccs1` [Example 5, N-(3-(3-(9H-purin-6-yl)pyridin-2-ylamino)-2,4-difluorophenyl)thiophene-2-carboxamide], the half-inhibitory concentration (IC50) is greater than 10000 nM.
To `O=C(Nc1cc(Nc2ncccc2-c2ncnc3[nH]cnc23)ccc1F)c1cccc(C(F)(F)F)n1` [Example 136, N-5-[(3-(9H-purin-6-yl)pyridin-2-yl)amino]-2-fluorophenyl-6-(trifluoromethyl) picolinamide] belongs 2300 nM; to `CC(C)(C#N)c1cccc(C(=O)Nc2ccc(Nc3ncccc3-c3ncnc4[nH]cnc34)c(F)c2)c1` [Example 39, N-(4-(3-(9H-Purin-6-Yl)Pyridin-2-Ylamino)-3-Fluorophenyl)-3-(2-Cyanopropan-2-Yl)Benzamide], greater than 10000 nM.
Then `O=C(Nc1cccc(C(F)(F)F)c1)c1cc(Nc2ncccc2-c2ncnc3[nH]cnc23)ccc1F` [Example 73, 2-Fluoro-5-[3-(9H-Purin-6-Yl)Pyridin-2-Ylamino]-N-(3-Trifluoromethylphenyl)Benzamide], with 80 nM.
Then `O=C(Nc1cc(Nc2ncccc2-c2ncnc3[nH]cnc23)ccc1F)c1cccc(C(F)(F)F)c1F` [Example 121, N-5-[(3-(9H-purin-6-yl)pyridin-2-yl)amino]-2-fluorophenyl-2-fluoro-3-(trifluoromethyl)benzamide], with 304 nM.
Take `O=C(Nc1cc(Nc2ncccc2-c2ncnc3[nH]cnc23)ccc1F)c1cccc(OC(F)(F)F)c1` [Example 131, N-5-[(3-(9H-purin-6-yl)pyridin-2-yl)amino]-2-fluorophenyl-3-(trifluoromethoxy)benzamide]: the IC50 worked out at 102 nM.
Regarding `CC(C)C(=O)Nc1ccc(F)c(Nc2ncccc2-c2ncnc3[nH]cnc23)c1F` [Example 4, N-(3-(3-(9H-purin-6-yl)pyridin-2-ylamino)-2,4-difluorophenyl)isobutylamide], the half-inhibitory concentration (IC50) was greater than 10000 nM.
On to `O=C(Nc1ccc(F)c(Nc2ncccc2-c2ncnc3[nH]cnc23)c1F)c1ccc([N+](=O)[O-])cc1` [Example 52, N-(3-(3-(9H-Purin-6-Yl)Pyridin-2-Ylamino)-2,4-Difluorophenyl)-4-Nitrobenzamide], for which the half-maximal inhibitory concentration (IC50) was greater than 10000 nM.
Then `CC1CCN(c2ccc(C(=O)Nc3ccc(F)c(Nc4ncccc4-c4ncnc5[nH]cnc45)c3F)cc2C(F)(F)F)CC1` [Example 15, N-(3-(3-(9H-purin-6-yl)pyridin-2-ylamino)-2,4-difluorophenyl)-4-(4-methylpeperidin-1-yl)-3-(trifluoromethyl)benzamide], with 1670 nM; and `O=C(Nc1cccc(C(F)(F)F)c1)Nc1cc(Nc2ncccc2-c2ncnc3[nH]cnc23)ccc1F` [Example 118, 1-5-[(3-(9H-purin-6-yl)pyridin-2-yl)amino]-2-fluorophenyl-3-[3-(trifluoromethyl)phenyl]urea], with 153 nM.
To `CC(C)(C#N)c1cccc(C(=O)Nc2ccc(F)c(Nc3ncccc3-c3ncnc4[nH]cnc34)c2F)c1Cl` [Example 42, N-(3-(3-(9H-Purin-6-Yl)Pyridin-2-Ylamino)-2,4-Difluorophenyl)-2-Chloro-3-(2-Cyanopropan-2-Yl)Benzamide] belongs 1330 nM; to `COc1cc(OC)cc(C(=O)Nc2cc(Nc3ncccc3-c3ncnc4[nH]cnc34)ccc2F)c1` [Example 132, N-5-[(3-(9H-purin-6-yl)pyridin-2-yl)amino]-2-fluorophenyl-3,5-dimethoxybenzamide], 585 nM; to `O=C(Nc1cc(Nc2ncccc2-c2ncnc3[nH]ccc23)ccc1F)c1cc(F)cc(C(F)(F)F)c1` [Example 88, 3-Fluoro-N-2-Fluoro-5-[3-(7H-Pyrrolo[2,3-d]Pyrimidin-4-Yl)Pyridin-2-Ylamino]Phenyl-5-Trifluoromethyl Benzamide], 609 nM.
For the compound `Cc1cc(C(=O)Nc2cc(Nc3ncccc3-c3ncnc4[nH]cnc34)ccc2F)cc(C(C)(C)C#N)c1` [Example 155, N-5-[(3-(9H-purin-6-yl)pyridin-2-yl)amino]-2-fluorophenyl-3-(2-cyanopropan-2-yl)-5-methylbenzamide], the IC50 came out at 145 nM.

By IC50 is commonly meant the concentration needed to halve the response being measured.
